For series [1] the following is noted: cited from earlier work.
The nature of series [2]: In vitro cisplatin release by dialysis. Particulars: PBS, 37° C. It counts as physicochemical. Here is the method: Cisplatin was bound to the carboxylate modified HPGs as described above with final polymer and cisplatin concentrations of 10 and 1 mg/mL, respectively. Into 7000 MWCO Slide-A-Lyzer mini dialysis units (Thermo Scientific, Rockford, Ill.), 20 μL of cisplatin bound polymer solution, or a 1 mg/mL solution of free cisplatin, were added and the samples were dialyzed at 37° C. with stirring against 4 L of 1 mM PBS adjusted to pHs of 4.5, 6.0, and 7.4 or synthetic urine at pH 7.0. Synthetic urine (Surine) was purchased from Dyna-Tek Industries (Lenexa, Kans.). At predetermined time points, three dialysis units were removed from the release media, and the entire contents were removed with three washings of the dialysis unit followed by dilution to 1 mL with fresh release media. The cisplatin concentration of contents of the dialysis units was determined by OPDA colorimetric assay. The cumulative percent drug released was calculated by subtracting the amount of drug remaining from the initial amount of drug in the dialysis bag at the beginning of the experiment. The data were expressed as cumulative percentage of drug released as a function of time.

The test system of series [3] is KU-7-luc bladder cancer cells. In words: Cytotoxicity evaluation, MTS cell proliferation assay. The format is cell-based. To be noted: cisplatin concentration. Here is the method:
Cytotoxicity studies were performed using the MTS cell proliferation assay (Promega, Madison, Wis.). […] In this study, KU-7-luc bladder cancer cells, kindly provided by Dr. M. Tachibana (Keio University, Tokyo, Japan). The cells were plated at 5000 cells/well into 96-well plates in 180 μL of Dulbecco's modified Eagle (DMEM) medium (Invitrogen Canada, Inc., Burlington, ON) supplemented with 10% fetal bovine serum (FBS) (Invitrogen Canada, Inc., Burlington, ON), 1% penicillin-streptomycin, and 1% L-glutamine and allowed to grow for 24 h at 37° C. in 5% CO2 to reach approximately 80% confluence for cytotoxicity assays. Cells were then incubated for 2 or 72 h with HPGs alone, ranging from 0.01-100 mg/mL, or free cisplatin or cisplatin-loaded HPGs with drug concentrations ranging from 0.01-100 μg/mL. After treatment, the cells were washed twice with Hank's balanced salt solution (HBSS) and 180 μL of fresh culture media was added into each well and cells were allowed to grow for 72 h. Proliferation of these cells was measured using a CellTiter 96 aqueous non-radioactive cell proliferation assay (Promega, Madison, Wis.) as described previously (Mugabe, C.; Hadaschik, B. A.; Kainthan, R. K.; Brooks, D. E.; So, A. I.; Gleave, M. E.; Burt, H. M. BJU Int. 2009, 103, 978-986). […] The absorbance was measured at 490 nm with a reference of 620 nm using a microplate reader.
A general note: Tetrazolium assays rely on reduction of a dye to a coloured formazan, in cell work by metabolically active cells.

Converted amounts (≈) assume the structure as drawn. A value given as a limit tells only on which side of the number the result lay.

The term aqueous solubility denotes the concentration that dissolves in the medium under given conditions. For the compound `CC(=O)O[C@@]12CO[C@@H]1C[C@H](O)[C@@]1(C)C(=O)[C@H](O)C3=C(C)[C@@H](OC(=O)[C@H](O)[C@@H](NC(=O)OC(C)(C)C)c4ccccc4)C[C@@](O)([C@@H](OC(=O)c4ccccc4)[C@H]21)C3(C)C` [DTX, docetaxel], in series [1], the aqueous solubility was ~7 µg/mL (≈ 8.66 µM).

The IC50 is the concentration needed to halve the response being measured. Read a low IC50 as greater potency in that assay. As to `N.N.[Cl][Pt][Cl]` [free cisplatin, cisplatin], in series [2], the “time to 100% complete release” value is reported as ≤ 7 h. In addition, the IC50 result in series [3] (2 h incubation) was “approximately 10 μg/mL”; in series [3] (72 h incubation) it was 1 µg/mL.

The record behind these values is patent publication US9561278B2, “Derivatized hyperbranched polyglycerols” (THE UNIVERSITY OF BRITISH COLUMBIA, priority 2010, dated 2017).
